Data as given in patent publication US5719296A, “Pseudopeptide lactam inhibitors of peptide binding to MHC class II proteins” (Merck & Co., Inc., priority 1996, dated 1998).
Like-named read-outs stand apart in the source and are kept apart here.

Target: T1, DR1Dw1 (Homo sapiens, UniProt P01903+P01911, A100R/D57E/F55L/F60I/F76Y/I96L/L162R/M171V/P40L/Q125E/R42F/V115G/Y59C)
T1 construct: these are Drosophila transmembrane DR; made in house; host or cells: Drosophila (cells)
Assay: Inhibition assay: inhibition of biotinylated RMBP 90-102 peptide binding to MHC class II DR1
Experimental: For direct binding assays, optimal concentrations of affinity purified DR1Dwl (1.25 nM) or DR4Dw4 (10 nM) are incubated with serial dilutions of biotinylated rat myelin basic protein (RMBP) 90-102 in PBS (phosphate buffered saline) containing 0.75% octyl glucoside, pH 6.5, in 96-well polypropylene plates for 16 to 20 h at 37° C. In studies optimizing the assay it was determined that only between 5 to 10% of the DR molecules are capable of binding added peptide. Therefore, the effective concentration of DR1Dw1 and DR4Dw4 was approximately 0.125 and 1.0 nM, respectively. […] The DR-peptide complexes (50 μL) are transferred to wells of a 96-well EIA plate precoated with LB3.1, the monoclonal antibody which recognizes the DR alleles of MHC Class II, and blocked with PBS with fetal calf serum (FCS). An additional 50 μL of 50 mM Tris, pH 7.0, containing 0.75% octyl glucoside is added to each well and the mixture incubated overnight at 4° C. Excess peptide is removed by washing with PBS containing 0.05% Tween 20 (Polyoxyethylene sorbitan monolaurate) and 0.01% NAN3. Europium-labeled streptavidin (Wallac Inc.) is added and incubated overnight. After washing, complexes are measured by the addition of Enhance™ buffer, the tradename for 0.1 M acetate phthalate buffer, pH 3.2, containing 0.1% Triton X-100, tradename for polyoxyethylene ethers and other surface active compounds of Union Carbide Chemicals and Plastics Co., Inc. (particularly, a non-ionic surfactant for recovery of membrane components under non-denaturing conditions) 15 µM 2-naphthoyltrifluoroacetone, and 50 μM tri-N-octylphosphine oxide, which buffer releases the chelated europium from streptavidin and forms a highly fluorescent micellar solution. The resultant fluorescence is measured using a fluorescent plate reader (e.g., DELPHIA, Wallac, Inc.). The data are analyzed using a four-parameter logistical curve […] program (e.g., SigmaPlot) that calculates the concentration of biotinylated peptide giving a half-maximal signal (ED50).
The inhibition assay format is identical to the procedure described above with the exception that the unlabeled antagonist is serially diluted and incubated with constant concentrations of biotinylated RMBP 90-102 (0.3 nM for DR1Dw1 or 0.9 nM for DR4Dw4) and the MHC class II proteins. The concentration of unlabeled compound that prevents 50% of the labeled peptide from binding is the IC50 value. The concentration of the biotinylated RMBP 90-102 in each assay is experimentally determined to be […] one-sixth of its measured ED50 to assure the inhibition was primarily measuring the binding characteristics of the competitor.
In particular, a protocol for carrying out the inhibition assay is given below.
Preparation of Antibody Plate
Add 115 μL of 5 μg/mL LB3.1 in 50 mM Tris HCl pH 9.6/azide to each well of a Costar EIA plate. Incubate the plate overnight at 4° C.
Wash the plate 4 times with water/0.05% Tween-20/azide. Add 200 μL of PBS/5% FCS/azide for 1 hour at 4° C. to block the plate. The plate may be held at this point for later use or used immediately.
Flip out the block. It is not necessary to wash the plate. At 50 μL of load buffer (50 mM Tris HCl, pH 8.0 0.75% octylglucoside). Add to this volume 50 μL of the reaction mix from day 2, step 3 below.
Preparation of Reaction Mixture
(1) Add the following to a polypropylene round bottom 96-well plate such as a Costar #3794:
(A) Diluent (Ca Mg free PBS adjusted to pH 6.5 with 0.1 M KH2 PO4/0.75% octylglucoside/azide).81 μL
(B) Competitor at 16.6 times the final concentration in diluent or diluent alone. 9 μL
(C) Biotinylated RMBP (BRMBP) 90-102; 1.5 nM for DR1 or 4.5 nM for DR4 (These are 5 × stocks of final concentrations of 0.3 nM/DR1 or 0.9 nM/DR4)
(D) 6.25 nM DR1Dw1 or 50 nM DR4Dw4 (these are Drosophila transmembrane DR) (This is a 5× stock of the final concentration of 1.25 or 10 nM.) 30 μL Add the DR last and mix well at this time 150 μL
(2) Incubate at 37° C. for 20 min and 5 hours. […]

[1] = 20 min incubation at 37° C., 0.3 nM biotinylated RMBP 90-102, 1.25 nM DR1Dw1, pH 6.5, read-out: IC50 /μM @ 20'
[2] = 5 hours incubation at 37° C., 0.3 nM biotinylated RMBP 90-102, 1.25 nM DR1Dw1, pH 6.5, read-out: IC50 /μM @ 5 h

“EtOCO-Phe-(S)-γ-Lactam-Nva-Leu-NH2 [Example 21]” was tested, and the IC50 [1] was 3.1 µM and the IC50 [2] was 10.5 µM.
Work on “EtOCO-Phe-(S)-δ-Lactam-L-Nva-Leu-NH2 [27(61)]” yielded an IC50 [1] of 3.4 µM and an IC50 [2] of 10 µM.
Substance “[4H]-Naphthyl-CH2 -(R)-γ-Lactam-Nva-Leu-NH2 [Example 50]” has an IC50 [1] of 2.5 µM and an IC50 [2] of 23.5 µM.
“cHp(CH2)3 -(R)-γ-Lactam-Nva-Leu-NH2 [Example 14]” was tested, and the IC50 [1] was 0.34 µM and the IC50 [2] was 2.9 µM.
For “cHp(CH2)3 -α-Propyl-(R)-γ-Lactam-Nva-Leu-NH2 [Example 32]”, the IC50 [1] was 0.15 µM and the IC50 [2] was 1.4 µM.
“cHx((CH3)C=CHCH2)-(R)-γ-Lactam-Nva-Leu-NH2 [Example 11]” gave an IC50 [1] of 0.76 µM and an IC50 [2] of 5.2 µM.
Substance “cHx((CH3)CHCH2 CH2 NH)-(R)-γ-Lactam-Nva-Leu-NH2 [Example 12]” has an IC50 [1] of 0.65 µM and an IC50 [2] of 5.6 µM.
“cHx(CH2)3 -α-(3-Aminopropyl)-(R)-γ-Lactam-Nva-NHNBu(COOEt) [Example 53]” gave an IC50 [1] of 0.68 µM and an IC50 [2] of 3.1 µM.
“cHx(CH2)3 -α-(3-Hydroxypropyl)-(R)-γ-Lactam-Nva-Leu-NH2 [Example 33]” gave an IC50 [1] of 0.13 µM and an IC50 [2] of 0.86 µM.
“cHx(CH2)3 -α-(3-Hydroxypropyl)-(R)-γ-Lactam-Nva-NHNBu(COOEt) [Example 51]” was tested, and the IC50 [1] was 0.16 µM and the IC50 [2] was 0.63 µM.
“cHx(CH2)3 -α-(3-guanidinopropyl)-(R)-γ-Lactam-Nva-NHNBu(COOEt) [Example 54]” showed an IC50 [1] of 0.21 µM and an IC50 [2] of 0.93 µM.
“cHx(CH2)3 -α-propyl-(R)-γ-Lactam-Nva-NHNBu(COOEt) [Example 35]” showed an IC50 [1] of 0.25 µM and an IC50 [2] of 2 µM.
With “cHx(CH23 -α-(3-Azidopropyl)-(R)-γ-Lactam-Nva-NHNBu(COOEt) [Example 52]” the IC50 [1] was 0.16 µM and the IC50 [2] was 0.62 µM.
